Data on one compound can be found in US20230263800A1, “COMPOSITIONS AND METHODS TO PROMOTE THYMIC FUNCTION” (Fred Hutchinson Cancer Center, priority 2020, published 2023).

Experiment [1] deals with C57BL/6 mice given sublethal TBI. As to the kind of experiment: Thymic regeneration after sublethal total body irradiation (SL-TBI, 550 cGy). The class given is in vivo, mouse. The conditions noted are these: TC-G 1008 20 mg/mouse/day by guided feeding day 0 to day 10, 550 cGy TBI, day 10. The text has this:
FIGS. 4A-4G. […] (4A, 4B) 6-8 week-old female C57BL/6 mice were fed a normal or ZD diet for 21 days at which point mice were given a sublethal dose of total body irradiation (TBI, 550 cGy). (4A) Total thymic cellularity at days 7 and 14 after TBI (n=10/treatment/timepoint across two independent experiments). (4B) Total number of CD45-EpCAM^+MHCII^+UEA1^loLy51^hi (cTECs) and CD45^− EpCAM^+MHCII^+UEA1^hi Ly51^lo (mTECs) at days 7 and 14 after TBI (n=10/treatment/timepoint across two independent experiments). (4C) 6-12 week-old female BALB.B mice were fed with normal or ZD diet for 21 days, at which point mice were given a lethal dose of TBI (900cGy) and 10×10^6 T cell-depleted bone marrow (BM) cells from 6-8 week-old C57BL/6. One cohort also received 2×10^6 T cells to induce graft versus host disease (GVHD); thymic cellularity was quantified on day 14 after allogeneic hematopoietic stem cell transplant (allo-HCT, n=5-6/group). (4D) 6-8 week-old female C57BL/6 mice were fed with normal or ZD diet for 21 days at which point mice were given 550 cGy TBI and total thymus cellularity quantified on day 14. […] (4E) Total thymic cellularity. (4F) Total number of cTECs and mTECs. (4G) Total number of Ki-67+ thymic endothelial cells (TECs). […]

For the next experiment, the system named is Bmp4 in exECs. As to the kind of experiment: Bmp4 expression by qPCR in exECs. The class given is cell-based, mouse. The settings on record: TC-G 1008 25 μM, 24 hours, compared with ZnSO4 100 μM. (Real-time PCR tracks product formation cycle by cycle.)
Experiment [2] relates to mice given lethal TBI and T cell depleted BM (allo-HCT). As to the kind of experiment: Thymic reconstitution after T cell-depleted allogeneic HCT. It counts as in vivo. The conditions noted are these: BALB.B recipients, 900 cGy, TC-G 1008 20 mg/mouse/day day 0-8, 10 and 12, day 14.
Experiment [3] relates to Male C57BL/6 mice aged 2 mo, 12 mo or 19 mo. As to the kind of experiment: Thymus cellularity in mice aged 2, 12 or 19 months. The settings on record: TC-G 1008 20 mg/kg/day for 5 days, day 7, versus untreated controls. It counts as in vivo, mouse. As for the experimental part: FIG. 14. Male C57BL/6 mice aged 2 mo, 12 mo or 19 mo were given the GPR39 agonist TC-G 1008 (20 mg/kg/day) for 5 days. Thymus cellularity was measured at day 7.

In another experiment the target is T1, GPR39 (Mus musculus, UniProt Q5U431).
T1 construct: endogenous in cells; host or cells: thymic endothelial cells (ECs / exECs)
T1 sequence (Q5U431 1-456): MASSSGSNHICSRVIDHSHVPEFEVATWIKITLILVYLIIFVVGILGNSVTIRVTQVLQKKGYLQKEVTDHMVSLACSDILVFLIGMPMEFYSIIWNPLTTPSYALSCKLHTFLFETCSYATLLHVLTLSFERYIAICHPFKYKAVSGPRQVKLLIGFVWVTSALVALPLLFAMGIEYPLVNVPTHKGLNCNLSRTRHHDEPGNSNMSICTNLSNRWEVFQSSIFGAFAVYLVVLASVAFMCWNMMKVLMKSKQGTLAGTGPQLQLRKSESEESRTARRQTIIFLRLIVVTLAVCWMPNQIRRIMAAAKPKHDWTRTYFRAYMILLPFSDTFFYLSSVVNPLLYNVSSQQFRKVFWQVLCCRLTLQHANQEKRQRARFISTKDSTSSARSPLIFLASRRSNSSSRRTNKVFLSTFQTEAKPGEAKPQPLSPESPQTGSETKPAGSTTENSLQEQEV
As to the kind of experiment: Ca2+ live imaging of ECs with Fluo3-AM. The conditions noted are these: 20 mins post stimulation, AUC. The class given is cell-based. The text has this:
FIGS. 20A-20D. […] (20D) GPR39 cell surface levels in thymocytes and TECs at d0. Graphs represent mean+/−SEM.

Entries after “also recorded” stand apart in the source; their conditions may differ.

`CNc1nc(NCc2ccc(NS(C)(=O)=O)cc2Cl)cc(-c2ccccn2)n1` [TC-G 1008, N-[3-chloro-4-[[[2-(methylamino)-6-pyridin-2-ylpyrimidin-4-yl]amino]methyl]phenyl]methanesulfonamide]: the “thymic function (thymus cellularity)” value in experiment [1] is on record as “significantly improved thymic function”. Further, the Bmp4 expression result in the experiment with Bmp4 in exECs is listed as “induced expression of Bmp4, greater than Zn alone; also recorded: induces expression of BMP4”. Also, the thymic function entry in experiment [2] is “significantly improved thymic function”. In addition, the thymus cellularity result in experiment [3] is on record as “significantly improved thymus cellularity”. Further, the “Ca2+ influx” value on GPR39 is reported as “incudes Ca2+ influx”.
